# Biological target: Histone deacetylase 3/Nuclear receptor corepressor 2 (HDAC3/NCoR2) (Homo sapiens, UniProt O15379+Q9Y618)
# Assay: Inhibition of human C-terminal His-tagged HDAC3 (1 to 428 residues)/human N-terminal GST-tagged NcoR2 (395 to 489 residues) expressed in sf9 cells using p53 (379 to 382 residues) (Arg-His-Lys(Ac)-Lys(Ac)) as substrate by fluorimetric assay
# Sequence of Histone deacetylase 3/Nuclear receptor corepressor 2 (HDAC3/NCoR2) (O15379 whole entry, the tested form may be a part): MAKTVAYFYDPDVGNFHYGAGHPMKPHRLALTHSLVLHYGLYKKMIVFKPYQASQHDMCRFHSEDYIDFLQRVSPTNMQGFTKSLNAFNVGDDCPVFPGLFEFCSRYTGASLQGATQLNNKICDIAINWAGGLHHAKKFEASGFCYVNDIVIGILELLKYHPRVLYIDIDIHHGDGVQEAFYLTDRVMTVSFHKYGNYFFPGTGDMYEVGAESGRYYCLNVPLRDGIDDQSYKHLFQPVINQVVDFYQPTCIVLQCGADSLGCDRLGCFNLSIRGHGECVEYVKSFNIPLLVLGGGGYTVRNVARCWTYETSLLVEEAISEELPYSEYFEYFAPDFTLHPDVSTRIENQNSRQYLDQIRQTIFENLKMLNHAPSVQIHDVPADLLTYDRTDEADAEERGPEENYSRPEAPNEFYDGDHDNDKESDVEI
# Sequence of Histone deacetylase 3/Nuclear receptor corepressor 2 (HDAC3/NCoR2) (Q9Y618 whole entry, the tested form may be a part): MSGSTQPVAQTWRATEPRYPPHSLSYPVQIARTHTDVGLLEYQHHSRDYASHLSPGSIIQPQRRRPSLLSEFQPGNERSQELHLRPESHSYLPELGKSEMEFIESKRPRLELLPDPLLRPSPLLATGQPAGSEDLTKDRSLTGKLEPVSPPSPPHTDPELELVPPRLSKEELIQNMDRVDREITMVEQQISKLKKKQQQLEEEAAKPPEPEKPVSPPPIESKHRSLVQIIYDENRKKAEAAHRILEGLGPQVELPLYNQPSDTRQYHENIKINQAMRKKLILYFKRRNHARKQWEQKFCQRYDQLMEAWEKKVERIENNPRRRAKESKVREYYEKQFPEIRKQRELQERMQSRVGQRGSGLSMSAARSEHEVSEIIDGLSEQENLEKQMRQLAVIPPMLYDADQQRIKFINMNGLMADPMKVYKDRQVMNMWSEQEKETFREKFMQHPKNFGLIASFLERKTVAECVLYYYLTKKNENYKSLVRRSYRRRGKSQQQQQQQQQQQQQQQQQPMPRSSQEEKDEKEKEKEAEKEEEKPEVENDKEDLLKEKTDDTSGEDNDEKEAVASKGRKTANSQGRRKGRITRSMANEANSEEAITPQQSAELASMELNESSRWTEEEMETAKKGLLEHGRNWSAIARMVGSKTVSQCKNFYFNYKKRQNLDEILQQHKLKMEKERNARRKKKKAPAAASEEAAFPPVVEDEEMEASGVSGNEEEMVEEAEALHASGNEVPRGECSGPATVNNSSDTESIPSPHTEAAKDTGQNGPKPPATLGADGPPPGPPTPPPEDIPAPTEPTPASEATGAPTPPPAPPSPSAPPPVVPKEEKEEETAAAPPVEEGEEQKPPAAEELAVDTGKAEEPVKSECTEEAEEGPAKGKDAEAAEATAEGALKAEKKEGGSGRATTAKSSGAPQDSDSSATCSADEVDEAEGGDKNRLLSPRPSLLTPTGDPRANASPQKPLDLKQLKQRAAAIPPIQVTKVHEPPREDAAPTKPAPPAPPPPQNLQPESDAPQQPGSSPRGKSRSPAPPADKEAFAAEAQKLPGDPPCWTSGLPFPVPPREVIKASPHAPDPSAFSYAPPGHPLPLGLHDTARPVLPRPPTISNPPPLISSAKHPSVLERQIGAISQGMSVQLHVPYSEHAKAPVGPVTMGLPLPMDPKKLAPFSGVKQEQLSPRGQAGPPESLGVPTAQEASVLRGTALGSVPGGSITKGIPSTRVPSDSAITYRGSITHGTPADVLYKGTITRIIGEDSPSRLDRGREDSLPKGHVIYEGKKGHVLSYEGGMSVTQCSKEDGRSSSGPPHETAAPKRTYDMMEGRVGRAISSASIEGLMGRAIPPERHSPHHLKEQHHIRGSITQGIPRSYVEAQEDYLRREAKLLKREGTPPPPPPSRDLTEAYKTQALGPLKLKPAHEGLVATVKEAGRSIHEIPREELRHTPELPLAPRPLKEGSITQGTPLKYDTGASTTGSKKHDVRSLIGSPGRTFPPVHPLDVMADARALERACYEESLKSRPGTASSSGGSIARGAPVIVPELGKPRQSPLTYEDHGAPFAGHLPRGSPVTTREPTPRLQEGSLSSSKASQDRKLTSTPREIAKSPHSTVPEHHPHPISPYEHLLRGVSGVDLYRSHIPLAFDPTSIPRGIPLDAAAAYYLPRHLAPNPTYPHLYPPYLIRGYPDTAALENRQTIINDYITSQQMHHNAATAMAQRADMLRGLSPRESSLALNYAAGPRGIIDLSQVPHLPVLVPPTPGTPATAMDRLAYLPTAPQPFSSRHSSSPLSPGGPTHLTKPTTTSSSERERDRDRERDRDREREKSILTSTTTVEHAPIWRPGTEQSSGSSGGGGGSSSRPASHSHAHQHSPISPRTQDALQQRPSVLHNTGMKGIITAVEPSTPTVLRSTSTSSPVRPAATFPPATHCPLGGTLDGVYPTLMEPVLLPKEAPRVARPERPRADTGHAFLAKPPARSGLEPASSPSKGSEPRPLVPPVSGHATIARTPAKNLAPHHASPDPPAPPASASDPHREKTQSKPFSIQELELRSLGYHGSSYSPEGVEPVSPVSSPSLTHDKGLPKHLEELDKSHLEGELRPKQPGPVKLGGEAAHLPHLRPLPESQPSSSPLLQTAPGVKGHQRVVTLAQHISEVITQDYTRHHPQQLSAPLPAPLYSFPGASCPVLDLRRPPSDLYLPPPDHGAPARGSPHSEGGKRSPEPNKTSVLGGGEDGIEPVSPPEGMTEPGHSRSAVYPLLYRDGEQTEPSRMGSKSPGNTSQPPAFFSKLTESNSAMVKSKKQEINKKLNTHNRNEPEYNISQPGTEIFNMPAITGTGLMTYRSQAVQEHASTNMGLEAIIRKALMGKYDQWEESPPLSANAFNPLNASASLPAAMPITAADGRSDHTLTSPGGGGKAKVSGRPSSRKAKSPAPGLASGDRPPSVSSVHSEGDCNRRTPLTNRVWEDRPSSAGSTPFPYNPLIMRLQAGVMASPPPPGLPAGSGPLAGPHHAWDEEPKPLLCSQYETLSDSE
smiles,measurement,value
CCCCNNC(=O)c1ccc(Br)cc1 [UF010],IC50,60 nM
